The source of these data is US10344060B2 (priority 2013, dated 2019).

What all share (assay): cell-based
Type in all cases: cell-based

One test deals with hNav1.4 (Homo sapiens, UniProt P35499). As to conditions: Table 12; for IC50: PatchXpress, tonic block, read-out: PX hNav1.4 Tonic IC50; for Nav1.4/Nav1.7: ratio of PX tonic IC50 values.
For a further test, the target named is hNav1.7 (Homo sapiens, UniProt Q15858). To be noted: read-out: PX hNav1.7 Tonic IC50.
In another test the target is hNav1.6 (Homo sapiens, UniProt Q9UQD0). As to conditions: Table 15; for Nav1.6/Nav1.7: ratio of PX tonic IC50 values; for IC50: read-out: PX hNav1.6 Tonic IC50.
Sequence of hNav1.6 (Q9UQD0 whole entry): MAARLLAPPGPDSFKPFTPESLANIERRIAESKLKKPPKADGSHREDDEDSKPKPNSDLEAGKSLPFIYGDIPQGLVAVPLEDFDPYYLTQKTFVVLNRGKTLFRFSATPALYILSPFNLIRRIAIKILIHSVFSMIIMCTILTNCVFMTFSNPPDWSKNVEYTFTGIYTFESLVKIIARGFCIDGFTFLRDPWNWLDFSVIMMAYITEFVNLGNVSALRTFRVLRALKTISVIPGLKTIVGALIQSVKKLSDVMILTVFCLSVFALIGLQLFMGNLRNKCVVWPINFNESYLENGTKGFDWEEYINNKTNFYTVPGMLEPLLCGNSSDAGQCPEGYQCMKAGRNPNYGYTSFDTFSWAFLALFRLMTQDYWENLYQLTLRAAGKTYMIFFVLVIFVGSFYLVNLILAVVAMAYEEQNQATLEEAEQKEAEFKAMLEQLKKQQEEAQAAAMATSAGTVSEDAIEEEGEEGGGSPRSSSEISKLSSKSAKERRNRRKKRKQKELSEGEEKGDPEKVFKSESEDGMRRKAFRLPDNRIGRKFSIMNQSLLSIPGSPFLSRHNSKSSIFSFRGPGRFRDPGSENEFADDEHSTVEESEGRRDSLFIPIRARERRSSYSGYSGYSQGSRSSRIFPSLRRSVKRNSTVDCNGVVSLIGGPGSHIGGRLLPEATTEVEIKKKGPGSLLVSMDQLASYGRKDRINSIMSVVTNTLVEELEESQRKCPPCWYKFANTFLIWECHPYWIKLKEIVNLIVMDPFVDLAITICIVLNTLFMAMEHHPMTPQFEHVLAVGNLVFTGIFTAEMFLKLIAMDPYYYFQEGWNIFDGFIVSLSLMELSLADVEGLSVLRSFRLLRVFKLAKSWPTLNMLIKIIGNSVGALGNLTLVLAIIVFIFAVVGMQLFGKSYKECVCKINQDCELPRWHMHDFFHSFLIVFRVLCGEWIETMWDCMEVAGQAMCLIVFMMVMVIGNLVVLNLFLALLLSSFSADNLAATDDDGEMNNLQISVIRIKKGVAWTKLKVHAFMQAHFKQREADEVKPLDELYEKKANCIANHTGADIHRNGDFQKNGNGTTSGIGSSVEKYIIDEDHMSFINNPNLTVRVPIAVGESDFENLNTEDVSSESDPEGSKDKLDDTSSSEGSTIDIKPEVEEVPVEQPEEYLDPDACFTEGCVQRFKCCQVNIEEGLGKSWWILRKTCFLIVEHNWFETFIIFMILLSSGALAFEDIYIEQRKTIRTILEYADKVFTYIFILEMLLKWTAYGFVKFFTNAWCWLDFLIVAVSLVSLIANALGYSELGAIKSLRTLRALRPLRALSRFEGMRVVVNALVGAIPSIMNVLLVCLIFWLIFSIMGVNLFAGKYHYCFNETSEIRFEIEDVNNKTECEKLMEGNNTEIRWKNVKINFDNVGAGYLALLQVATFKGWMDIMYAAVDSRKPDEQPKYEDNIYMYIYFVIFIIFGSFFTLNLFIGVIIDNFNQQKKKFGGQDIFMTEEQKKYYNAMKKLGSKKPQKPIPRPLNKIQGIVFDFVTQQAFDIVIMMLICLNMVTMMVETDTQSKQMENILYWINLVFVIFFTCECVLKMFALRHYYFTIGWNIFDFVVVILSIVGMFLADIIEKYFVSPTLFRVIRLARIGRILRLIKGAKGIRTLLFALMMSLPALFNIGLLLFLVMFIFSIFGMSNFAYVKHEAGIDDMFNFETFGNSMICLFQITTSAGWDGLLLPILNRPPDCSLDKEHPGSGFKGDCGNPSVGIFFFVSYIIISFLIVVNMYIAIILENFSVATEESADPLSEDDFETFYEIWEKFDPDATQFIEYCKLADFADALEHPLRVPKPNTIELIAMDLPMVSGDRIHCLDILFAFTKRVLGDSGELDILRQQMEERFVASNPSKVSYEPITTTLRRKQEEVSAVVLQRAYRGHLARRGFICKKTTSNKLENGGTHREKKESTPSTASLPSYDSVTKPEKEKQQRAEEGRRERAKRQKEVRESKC
The mark [1] stands for this setting: Table 12, PatchXpress, tonic block.

Read-outs that look alike come from different tables or passages of the source.

Sequence of hNav1.4 (P35499 whole entry): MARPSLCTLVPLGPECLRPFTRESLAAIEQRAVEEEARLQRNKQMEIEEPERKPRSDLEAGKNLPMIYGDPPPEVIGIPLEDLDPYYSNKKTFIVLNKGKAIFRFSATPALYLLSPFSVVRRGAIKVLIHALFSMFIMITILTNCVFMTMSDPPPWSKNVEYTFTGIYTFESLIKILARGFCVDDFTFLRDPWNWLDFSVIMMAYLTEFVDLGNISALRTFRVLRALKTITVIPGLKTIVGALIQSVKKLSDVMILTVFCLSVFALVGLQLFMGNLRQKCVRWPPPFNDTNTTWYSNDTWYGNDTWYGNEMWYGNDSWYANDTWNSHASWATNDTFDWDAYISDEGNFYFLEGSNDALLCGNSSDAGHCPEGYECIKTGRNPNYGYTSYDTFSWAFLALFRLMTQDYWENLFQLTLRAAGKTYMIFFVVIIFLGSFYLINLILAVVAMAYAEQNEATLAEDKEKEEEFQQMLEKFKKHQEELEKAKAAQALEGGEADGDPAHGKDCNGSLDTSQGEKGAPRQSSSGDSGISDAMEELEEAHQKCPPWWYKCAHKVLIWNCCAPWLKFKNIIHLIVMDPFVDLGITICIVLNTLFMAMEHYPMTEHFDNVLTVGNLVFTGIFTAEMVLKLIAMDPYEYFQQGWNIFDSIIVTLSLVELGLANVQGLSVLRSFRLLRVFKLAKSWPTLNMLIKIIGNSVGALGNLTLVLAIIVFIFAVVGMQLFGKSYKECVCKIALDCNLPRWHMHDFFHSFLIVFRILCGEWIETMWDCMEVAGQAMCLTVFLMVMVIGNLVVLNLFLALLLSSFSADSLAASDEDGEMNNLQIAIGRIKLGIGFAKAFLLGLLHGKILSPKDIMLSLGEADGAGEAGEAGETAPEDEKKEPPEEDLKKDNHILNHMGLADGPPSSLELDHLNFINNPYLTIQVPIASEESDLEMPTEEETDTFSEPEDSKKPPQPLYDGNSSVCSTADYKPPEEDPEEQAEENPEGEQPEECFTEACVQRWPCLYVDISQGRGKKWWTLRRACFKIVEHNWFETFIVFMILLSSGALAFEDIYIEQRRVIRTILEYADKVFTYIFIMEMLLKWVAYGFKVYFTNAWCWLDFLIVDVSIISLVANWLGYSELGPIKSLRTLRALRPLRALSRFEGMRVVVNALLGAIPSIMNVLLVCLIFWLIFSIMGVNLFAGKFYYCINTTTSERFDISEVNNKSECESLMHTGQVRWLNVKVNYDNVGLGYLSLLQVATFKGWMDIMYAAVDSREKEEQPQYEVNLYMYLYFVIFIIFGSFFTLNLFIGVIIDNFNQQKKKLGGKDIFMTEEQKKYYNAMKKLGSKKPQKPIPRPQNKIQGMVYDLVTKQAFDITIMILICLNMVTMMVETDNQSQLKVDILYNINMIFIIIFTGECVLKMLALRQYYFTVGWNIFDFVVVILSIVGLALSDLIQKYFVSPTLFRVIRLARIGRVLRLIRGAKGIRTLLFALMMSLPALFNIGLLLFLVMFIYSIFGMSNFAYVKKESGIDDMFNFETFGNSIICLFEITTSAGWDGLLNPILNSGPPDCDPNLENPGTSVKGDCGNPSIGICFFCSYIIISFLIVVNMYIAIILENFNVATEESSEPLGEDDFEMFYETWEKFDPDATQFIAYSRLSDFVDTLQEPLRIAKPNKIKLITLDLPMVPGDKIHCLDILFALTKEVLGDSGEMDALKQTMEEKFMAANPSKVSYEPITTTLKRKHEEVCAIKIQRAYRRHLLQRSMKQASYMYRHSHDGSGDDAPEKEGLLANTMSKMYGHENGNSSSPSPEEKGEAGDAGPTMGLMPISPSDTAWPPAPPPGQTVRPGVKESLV

Consider `C#CC[C@H](NC(=O)[C@@H](N)CCC(=O)O)C(=O)N[C@@H](Cc1ccc(O)cc1)C(=O)N[C@H]1CSSC[C@@H]2NC(=O)[C@@H]3CSSC[C@@H](C(=O)N[C@@H](CCCNC(=N)N)C(=O)N[C@@H](CCCCN)C(=O)N[C@@H](CCC(=O)O)C(=O)N[C@H](C(N)=O)[C@@H](C)CC)NC(=O)[C@H](Cc4c[nH]c5ccccc45)NC(=O)[C@H](CC(C)C)NC(=O)[C@H](CCCCN)NC(=O)[C@H](CSSC[C@H](NC(=O)[C@H]([C@@H](C)O)NC(=O)[C@H](Cc4c[nH]c5ccccc45)NC(=O)[C@H](CCCC)NC(=O)[C@H](Cc4c[nH]c5ccccc45)NC(=O)[C@H](CCCCN)NC(=O)[C@H](CCC(N)=O)NC1=O)C(=O)N[C@@H](CC(=O)O)C(=O)N[C@@H](CCC(=O)O)C(=O)N[C@@H](CCCCN)C(=O)N[C@@H](CCCNC(=N)N)C(=O)N[C@@H](C)C(=O)N3)NC(=O)[C@H](CCCNC(=N)N)NC(=O)[C@H](CC(C)C)NC(=O)CNC(=O)[C@H](CCC(=O)O)NC2=O` [compound 734], for which, at hNav1.4, the 50% inhibitory concentration (IC50) (as a rule, the concentration that gives 50% inhibition) was determined as 1050 nM and the Nav1.4/Nav1.7 is on record as 452. Also, the concentration for half-maximal inhibition (IC50) at hNav1.7 (setting [1]) amounted to 2.33 nM. In addition, on hNav1.6, the Nav1.6/Nav1.7 turned out to be 1233 and the IC50 was 2870 nM.

Turning to `C#CC[C@H](NC(=O)[C@@H](N)CCC(=O)O)C(=O)N[C@H]1CSSC[C@@H]2NC(=O)[C@@H]3CSSC[C@@H](C(=O)N[C@@H](CCCNC(=N)N)C(=O)N[C@@H](CCCCN)C(=O)N[C@@H](CCC(=O)O)C(=O)N[C@H](C(N)=O)[C@@H](C)CC)NC(=O)[C@H](Cc4c[nH]c5ccccc45)NC(=O)[C@H](CC(C)C)NC(=O)[C@H](CCCCN)NC(=O)[C@H](CSSC[C@H](NC(=O)[C@H]([C@@H](C)O)NC(=O)[C@H](Cc4c[nH]c5ccccc45)NC(=O)[C@H](CCCC)NC(=O)[C@H](Cc4c[nH]c5ccccc45)NC(=O)[C@H](CCCCN)NC(=O)[C@H](CCC(N)=O)NC1=O)C(=O)N[C@@H](CC(=O)O)C(=O)N[C@@H](CCC(=O)O)C(=O)N[C@@H](CCCCN)C(=O)N[C@@H](CCCNC(=N)N)C(=O)N[C@@H](C)C(=O)N3)NC(=O)[C@H](CCCNC(=N)N)NC(=O)[C@H](CC(C)C)NC(=O)CNC(=O)[C@H](CCC(=O)O)NC2=O` [compound 736], on hNav1.4, the IC50 came out at 547 nM and the Nav1.4/Nav1.7 is on record as 375. Further, at hNav1.7 (setting [1]), the 50% inhibitory concentration (IC50) came out at 1.46 nM. On hNav1.6, the Nav1.6/Nav1.7 is 1730 and the IC50 turned out to be 2520 nM.

Consider `C#CC[C@H](NC(=O)[C@@H](N)CCC(=O)O)C(=O)N[C@H]1CSSC[C@@H]2NC(=O)[C@@H]3CSSC[C@@H](C(=O)N[C@@H](CCCNC(=N)N)C(=O)N[C@@H](CCCCN)C(=O)N[C@@H](CCC(=O)O)C(=O)N[C@H](C(N)=O)[C@@H](C)CC)NC(=O)[C@H](Cc4c[nH]c5ccccc45)NC(=O)[C@H](CC(C)C)NC(=O)[C@H](CCCCN)NC(=O)[C@H](CSSC[C@H](NC(=O)[C@H]([C@@H](C)O)NC(=O)[C@H](Cc4c[nH]c5ccccc45)NC(=O)[C@H](CCCC)NC(=O)[C@H](Cc4c[nH]c5ccccc45)NC(=O)[C@H](CCCCN)NC(=O)[C@H](CCC(N)=O)NC1=O)C(=O)N[C@@H](CC(=O)O)C(=O)N[C@@H](CO)C(=O)N[C@@H](CCCCN)C(=O)N[C@@H](CCCNC(=N)N)C(=O)N[C@@H](CCC(=O)O)C(=O)N3)NC(=O)[C@H](CCCNC(=N)N)NC(=O)[C@H](CC(C)C)NC(=O)CNC(=O)[C@H](CCC(=O)O)NC2=O` [compound 738], for which the half-maximal inhibitory concentration (IC50) amounted to 246 nM on hNav1.4, 0.563 nM at hNav1.7 (setting [1]), 0.525 nM at hNav1.7 (Table 15) and 563 nM on hNav1.6. For the same compound, the Nav1.4/Nav1.7 on hNav1.4 is 437. For the same compound, the Nav1.6/Nav1.7 on hNav1.6 was 1071.

On to `C#CC[C@H](N)C(=O)N[C@@H](CCC(=O)O)C(=O)N[C@H]1CSSC[C@@H]2NC(=O)[C@@H]3CSSC[C@@H](C(=O)N[C@@H](CCCNC(=N)N)C(=O)N[C@@H](CCCCN)C(=O)N[C@@H](CCC(=O)O)C(=O)N[C@H](C(N)=O)[C@@H](C)CC)NC(=O)[C@H](Cc4c[nH]c5ccccc45)NC(=O)[C@H](CC(C)C)NC(=O)[C@H](CCCCN)NC(=O)[C@H](CSSC[C@H](NC(=O)[C@H]([C@@H](C)O)NC(=O)[C@H](Cc4c[nH]c5ccccc45)NC(=O)[C@H](CCCC)NC(=O)[C@H](Cc4c[nH]c5ccccc45)NC(=O)[C@H](CCCCN)NC(=O)[C@H](CCC(N)=O)NC1=O)C(=O)N[C@@H](CC(=O)O)C(=O)N[C@@H](CCC(=O)O)C(=O)N[C@@H](CCCCN)C(=O)N[C@@H](CCCNC(=N)N)C(=O)N[C@@H](C)C(=O)N3)NC(=O)[C@H](CCCNC(=N)N)NC(=O)[C@H](CC(C)C)NC(=O)CNC(=O)[C@H](CCC(=O)O)NC2=O` [compound 739], for which, at hNav1.4, the half-maximal inhibitory concentration (IC50) is 1280 nM and the Nav1.4/Nav1.7 came to 231. The IC50 at hNav1.7 (setting [1]) amounted to 5.55 nM. At hNav1.6, the Nav1.6/Nav1.7 is 395 and the IC50 was found to be 2190 nM.

Turning to `C#CC[C@H](NC(=O)[C@@H](N)CCC(=O)O)C(=O)N[C@@H](CCC(=O)O)C(=O)N[C@H]1CSSC[C@@H]2NC(=O)[C@@H]3CSSC[C@@H](C(=O)N[C@@H](CCCNC(=N)N)C(=O)N[C@@H](CCCCN)C(=O)N[C@@H](CCC(=O)O)C(=O)N[C@H](C(N)=O)[C@@H](C)CC)NC(=O)[C@H](Cc4c[nH]c5ccccc45)NC(=O)[C@H](CC(C)C)NC(=O)[C@H](CCCCN)NC(=O)[C@H](CSSC[C@H](NC(=O)[C@H]([C@@H](C)O)NC(=O)[C@H](Cc4c[nH]c5ccccc45)NC(=O)[C@H](CCCC)NC(=O)[C@H](Cc4c[nH]c5ccccc45)NC(=O)[C@H](CCCCN)NC(=O)[C@H](CCC(N)=O)NC1=O)C(=O)N[C@@H](CC(=O)O)C(=O)N[C@@H](CCC(=O)O)C(=O)N[C@@H](CCCCN)C(=O)N[C@@H](CCCNC(=N)N)C(=O)N[C@@H](C)C(=O)N3)NC(=O)[C@H](CCCNC(=N)N)NC(=O)[C@H](CC(C)C)NC(=O)CNC(=O)[C@H](CCC(=O)O)NC2=O` [compound 741], at hNav1.4, the half-inhibitory concentration (IC50) is 1680 nM and the Nav1.4/Nav1.7 is listed as 302. Moreover, at hNav1.7 (setting [1]), the IC50 turned out to be 5.59 nM. In addition, at hNav1.6, the Nav1.6/Nav1.7 is given as 1014 and the half-inhibitory concentration (IC50) stood at 5660 nM.

Consider `C#CC[C@H](N)C(=O)N[C@@H](CCC(=O)O)C(=O)N[C@H]1CSSC[C@@H]2NC(=O)[C@@H]3CSSC[C@@H](C(=O)N[C@@H](CCCNC(=N)N)C(=O)N[C@@H](CCCCN)C(=O)N[C@@H](CCC(=O)O)C(=O)N[C@H](C(N)=O)[C@@H](C)CC)NC(=O)[C@H](Cc4c[nH]c5ccccc45)NC(=O)[C@H](CC(C)C)NC(=O)[C@H](CCCCN)NC(=O)[C@H](CSSC[C@H](NC(=O)[C@H]([C@@H](C)O)NC(=O)[C@H](Cc4c[nH]c5ccccc45)NC(=O)[C@H](CCCC)NC(=O)[C@H](Cc4c[nH]c5ccccc45)NC(=O)[C@H](CCCCN)NC(=O)[C@H](CCC(N)=O)NC1=O)C(=O)N[C@@H](CC(=O)O)C(=O)N[C@@H](CO)C(=O)N[C@@H](CCC(=O)O)C(=O)N[C@@H](CCCNC(=N)N)C(=O)N[C@@H](C)C(=O)N3)NC(=O)[C@H](CCCNC(=N)N)NC(=O)[C@H](CC(C)C)NC(=O)CNC(=O)[C@H](CCC(=O)O)NC2=O` [compound 742], for which the IC50 at hNav1.4 turned out to be 1720 nM; at hNav1.7 (setting [1]) it was 4.14 nM; at hNav1.6 it was 1380 nM. The Nav1.4/Nav1.7 on hNav1.4 worked out at 416. For the same compound, the Nav1.6/Nav1.7 on hNav1.6 was 333.

`C#CC[C@H](N)C(=O)N[C@@H](CCC(=O)O)C(=O)N[C@H]1CSSC[C@@H]2NC(=O)[C@@H]3CSSC[C@@H](C(=O)N[C@@H](CCCNC(=N)N)C(=O)N[C@@H](CCCCN)C(=O)N[C@@H](CCC(=O)O)C(=O)N[C@H](C(N)=O)[C@@H](C)CC)NC(=O)[C@H](Cc4c[nH]c5ccccc45)NC(=O)[C@H](CC(C)C)NC(=O)[C@H](CCCCN)NC(=O)[C@H](CSSC[C@H](NC(=O)[C@H]([C@@H](C)O)NC(=O)[C@H](Cc4c[nH]c5ccccc45)NC(=O)[C@H](CCCC)NC(=O)[C@H](Cc4c[nH]c5ccccc45)NC(=O)[C@H](CCCCN)NC(=O)[C@H](CCC(N)=O)NC1=O)C(=O)N[C@@H](CC(=O)O)C(=O)N[C@@H](CO)C(=O)N[C@@H](CCCCN)C(=O)N[C@@H](CCCNC(=N)N)C(=O)N[C@@H](CCC(=O)O)C(=O)N3)NC(=O)[C@H](CCCNC(=N)N)NC(=O)[C@H](CC(C)C)NC(=O)CNC(=O)[C@H](CCC(=O)O)NC2=O` [compound 743]: at hNav1.4, the 50% inhibitory concentration (IC50) is 670 nM and the Nav1.4/Nav1.7 was determined as 494. The half-inhibitory concentration (IC50) at hNav1.7 (setting [1]) came out at 1.36 nM. In addition, at hNav1.6, the Nav1.6/Nav1.7 is reported as 1727 and the IC50 was 2340 nM.

Regarding `C#CC[C@H](N)C(=O)N[C@@H](Cc1ccc(O)cc1)C(=O)N[C@H]1CSSC[C@@H]2NC(=O)[C@@H]3CSSC[C@@H](C(=O)N[C@@H](CCCNC(=N)N)C(=O)N[C@@H](CCCCN)C(=O)N[C@@H](CCC(=O)O)C(=O)N[C@H](C(N)=O)[C@@H](C)CC)NC(=O)[C@H](Cc4c[nH]c5ccccc45)NC(=O)[C@H](CC(C)C)NC(=O)[C@H](CCCCN)NC(=O)[C@H](CSSC[C@H](NC(=O)[C@H]([C@@H](C)O)NC(=O)[C@H](Cc4c[nH]c5ccccc45)NC(=O)[C@H](CCCC)NC(=O)[C@H](Cc4c[nH]c5ccccc45)NC(=O)[C@H](CCCCN)NC(=O)[C@H](CCC(N)=O)NC1=O)C(=O)N[C@@H](CC(=O)O)C(=O)N[C@@H](CCC(=O)O)C(=O)N[C@@H](CCC(=O)O)C(=O)N[C@@H](CCCNC(=N)N)C(=O)N[C@@H](C)C(=O)N3)NC(=O)[C@H](CCCNC(=N)N)NC(=O)[C@H](CC(C)C)NC(=O)CNC(=O)[C@H](CCC(=O)O)NC2=O` [compound 744], on hNav1.4, the IC50 was found to be 1420 nM and the Nav1.4/Nav1.7 is 374. In addition, the IC50 on hNav1.7 (setting [1]) amounted to 3.8 nM. In addition, at hNav1.6, the Nav1.6/Nav1.7 was determined as 217 and the half-maximal inhibitory concentration (IC50) is 825 nM.
